Measured values reported in patent publication US6294564A, “Benzimidazoles and benzoxazoles” (Byk Gulden Lomberg Chemische Fabrik GmbH, priority 1998, dated 2001).

Test system: PDE4
Experiment: Inhibition of PDE4 Activity (activity test according to Bauer and Schwabe adapted to microtitre plates)
Assay type: biochemical
Conditions: Inhibition of the PDE4 Activity; inhibitory concentration as -log IC50 (mol/l)

-log IC50	SMILES
7.87	COc1ccc(-c2nc3cc(C(=O)O)ccc3[nH]2)c2c1OC1(CCCC1)C2 [compound 1, 2-(2,3-Dihydro-7-methoxybenzofuran-2-spiro-1'-cyclopentan-4-yl)benzimidazole-5-carboxylic acid]
7.69	COc1ccc(-c2nc3cc(C(N)=O)ccc3[nH]2)c2c1OC1(CCCC1)C2 [compound 2, 2-(2,3-Dihydro-7-methoxybenzofuran-2-spiro-1'-cyclopentan-4-yl)benzimidazole-5-carboxamide]
7.65	COc1ccc(-c2nc3cc(C(=O)O)ccc3o2)c2c1OC1(CCCC1)C2 [compound 3, 2-(2,3-Dihydro-7-methoxybenzofuran-2-spiro-1'-cyclopentan-4-yl)benzoxazole-5-carboxylic acid]
7.05	COc1ccc(-c2nc3cc(C(=O)O)ccc3o2)c2c1OC1(CCOCC1)C2 [compound 6, 2-(2,3-Dihydro-7-methoxybenzofuran-2-spiro-4'-tetrahydropyran-4-yl)benzoxazole-5-carboxylic acid]
6.80	COc1ccc(-c2nc3cc(C(N)=O)ccc3o2)c2c1OC1(CCOCC1)C2 [compound 7, 2-(2,3-Dihydro-7-methoxybenzofuran-2-spiro-4'-tetrahydropyran-4-yl)benzoxazole-5-carboxamide]
8.21	COc1ccc(-c2nc3ccc(C(=O)O)cc3o2)c2c1OC1(CCCC1)C2 [compound 8, 2-(2,3-Dihydro-7-methoxybenzofuran-2-spiro-1'-cyclopentan-4-yl)benzoxazole-6-carboxylic acid]
6.90	COc1ccc(-c2nc3ccc(C(=O)OCCN4CCOCC4)cc3o2)c2c1OC1(CCCC1)C2 [compound 9, 2-morpholin-4-ylethyl 2-(2,3-dihydro-7-methoxybenzofuran-2-spiro-1'-cyclopentan4-yl)-benzoxazole-6-carboxylate]
6.85	COc1ccc(-c2nc3ccc(C(=O)O)cc3o2)c2c1OC1(CCOCC1)C2 [compound 11, 2-(2,3-Dihydro-7-methoxybenzofuran-2-spiro-4'-tetrahydropyran-4-yl) benzoxazole-6-carboxylic acid]
6.42	COc1ccc(-c2nc3ccc(C(N)=O)cc3o2)c2c1OC1(CCOCC1)C2 [compound 12, 2-(2,3-Dihydro-7-methoxybenzofuran-2-spiro-4'-tetrahydropyran-4-yl)benzoxazole-6-carboxamide]
